Results from ChEMBL document CHEMBL5634147, “Multi-targeted anti-Alzheimer's agents: Synthesis, biological evaluation, and molecular modeling study of some pyrazolopyridine hybrids” (Eur J Med Chem, 2023).
Active and inactive are the calls of the source. The calls are words filed in the database; no cut-off is given here. Non-standard residues stand in square brackets, D forms with d. Residues, ends and D or L forms follow the SMILES beside them. *: point of attachment. Myristoyl = CCCCCCCCCCCCCC(=O)*; pS = N[C@@H](COP(=O)(O)O)C(=O)O

Legend:
Acetylcholinesterase = Acetylcholinesterase (Homo sapiens, UniProt P22303); test: Inhibition of human AChE using acetylthiocholine iodide as substrate measured after 15 to 20 mins by DTNB reagent based Ellman's method
Cholinesterase = Cholinesterase (Homo sapiens, UniProt P06276); test: Inhibition of human BuChE measured after 15 to 20 mins by DTNB reagent based Ellman's method
[1] = target: Glycogen synthase kinase-3 beta (Homo sapiens, UniProt P49841); test: Inhibition of human GSK3beta by luminescent microplate reader method
[2] = target: T1, Microtubule-associated protein tau (Homo sapiens, UniProt P10636); test: Inhibition of human tau protein aggregation at 10 uM incubated for 1.5 hrs by TMB substrate based ELISA relative to control
[3] = target: T1, Microtubule-associated protein tau; test: Inhibition of human tau protein aggregation incubated for 1.5 hrs by TMB substrate based ELISA
[4] = target: T2, Amyloid-beta precursor protein (Homo sapiens, UniProt P05067); test: Inhibition of self-mediated Amyloid beta (1 to 42) (unknown origin) aggregation at 10 uM measured every 5 mins by ThT fluorescence based assay relative to control
[5] = target: T2, Amyloid-beta precursor protein; test: Inhibition of self mediated Amyloid beta (1 to 42) (unknown origin) aggregation measured every 5 mins by ThT fluorescence based assay
[6] = Metal chelating activity assessed as Fe2+-compound complex formation by measuring hyperchromic shift in presence of FeSO4 by UV-Vis spectroscopy
[7] = Metal chelating activity assessed as Cu2+-compound complex formation by measuring hypochromic shift in presence of CuSO4 by UV-Vis spectroscopy
[8] = Metal chelating activity assessed as Zn2+-compound complex formation by measuring hypochromic shift in presence of ZnSO4 by UV-Vis spectroscopy
[9] = Cytotoxicity against human WI-38 cells assessed as inhibition of cell growth incubated for 72 hrs by MTT assay; type: toxicity, cell-based
human AChE = test: Safety index, ratio of IC50 for cytotoxicity against human WI-38 cells to IC50 for human AChE; type: toxicity, cell-based; details: read-out: Ratio IC50
[10] = Cytotoxicity against human WI-38 cells assessed as cell viability upto 3.125 uM incubated for 72 hrs by MTT assay relative to control; type: toxicity, cell-based; details: read-out: Activity
[11] = Metal chelating activity assessed as Cu2+-compound complex formation by measuring hyperchromic shift in presence of CuSO4 by UV-Vis spectroscopy
[12] = Metal chelating activity assessed as Zn2+-compound complex formation by measuring hyperchromic shift in presence of ZnSO4 by UV-Vis spectroscopy

T1 sequence (P10636 whole entry): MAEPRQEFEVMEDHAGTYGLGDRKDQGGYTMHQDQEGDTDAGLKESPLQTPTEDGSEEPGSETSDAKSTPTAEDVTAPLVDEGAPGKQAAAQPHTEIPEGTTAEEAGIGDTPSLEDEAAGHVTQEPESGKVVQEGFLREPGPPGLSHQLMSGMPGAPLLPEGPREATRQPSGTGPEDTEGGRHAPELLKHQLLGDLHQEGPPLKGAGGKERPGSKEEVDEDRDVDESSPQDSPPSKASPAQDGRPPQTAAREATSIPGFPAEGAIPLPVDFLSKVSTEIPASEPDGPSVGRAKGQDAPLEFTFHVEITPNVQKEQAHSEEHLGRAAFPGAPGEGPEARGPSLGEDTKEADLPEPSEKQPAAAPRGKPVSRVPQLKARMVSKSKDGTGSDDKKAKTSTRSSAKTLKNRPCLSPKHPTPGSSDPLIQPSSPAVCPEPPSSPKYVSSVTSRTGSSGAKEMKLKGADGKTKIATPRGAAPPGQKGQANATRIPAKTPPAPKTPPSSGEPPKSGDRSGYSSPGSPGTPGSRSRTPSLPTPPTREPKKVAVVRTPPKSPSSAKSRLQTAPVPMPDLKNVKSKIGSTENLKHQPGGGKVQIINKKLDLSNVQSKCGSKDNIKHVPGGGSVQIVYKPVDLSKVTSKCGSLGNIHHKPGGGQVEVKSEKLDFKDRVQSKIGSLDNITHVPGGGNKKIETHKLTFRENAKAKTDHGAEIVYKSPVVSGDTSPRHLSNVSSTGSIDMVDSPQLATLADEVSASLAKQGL
T2 sequence (P05067 whole entry): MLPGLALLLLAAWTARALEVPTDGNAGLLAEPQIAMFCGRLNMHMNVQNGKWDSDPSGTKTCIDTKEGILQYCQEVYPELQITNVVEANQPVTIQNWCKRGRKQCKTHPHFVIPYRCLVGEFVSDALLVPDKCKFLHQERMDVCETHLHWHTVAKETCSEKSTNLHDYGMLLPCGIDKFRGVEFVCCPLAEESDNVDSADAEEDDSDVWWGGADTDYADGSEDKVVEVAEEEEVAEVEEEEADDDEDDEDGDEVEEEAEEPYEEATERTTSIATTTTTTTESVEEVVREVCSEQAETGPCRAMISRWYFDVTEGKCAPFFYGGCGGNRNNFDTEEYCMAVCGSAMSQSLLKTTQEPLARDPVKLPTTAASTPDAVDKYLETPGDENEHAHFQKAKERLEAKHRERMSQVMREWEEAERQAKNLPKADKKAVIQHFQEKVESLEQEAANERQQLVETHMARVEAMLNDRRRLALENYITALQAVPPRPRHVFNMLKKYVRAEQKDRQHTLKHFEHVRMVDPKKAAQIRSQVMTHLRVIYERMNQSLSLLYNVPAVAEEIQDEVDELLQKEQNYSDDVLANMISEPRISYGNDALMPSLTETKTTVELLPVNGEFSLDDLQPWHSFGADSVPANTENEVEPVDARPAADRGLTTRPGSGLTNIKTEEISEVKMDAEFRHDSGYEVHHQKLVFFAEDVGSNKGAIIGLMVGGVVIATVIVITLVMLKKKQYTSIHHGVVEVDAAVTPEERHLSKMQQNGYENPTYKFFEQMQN
Glycogen synthase kinase-3 beta, sequence (P49841 whole entry): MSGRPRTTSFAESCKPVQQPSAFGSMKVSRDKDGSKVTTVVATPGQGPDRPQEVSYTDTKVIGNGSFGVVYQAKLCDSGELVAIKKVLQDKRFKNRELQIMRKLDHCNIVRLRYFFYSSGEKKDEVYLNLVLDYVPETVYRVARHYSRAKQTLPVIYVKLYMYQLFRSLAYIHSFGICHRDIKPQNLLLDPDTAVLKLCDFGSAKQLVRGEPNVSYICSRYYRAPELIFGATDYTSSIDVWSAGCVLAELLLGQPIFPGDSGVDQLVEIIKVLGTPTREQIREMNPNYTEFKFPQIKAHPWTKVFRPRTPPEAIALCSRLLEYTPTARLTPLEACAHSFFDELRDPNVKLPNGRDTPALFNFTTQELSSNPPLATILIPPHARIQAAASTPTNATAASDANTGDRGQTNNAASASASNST
Acetylcholinesterase, sequence (P22303 whole entry): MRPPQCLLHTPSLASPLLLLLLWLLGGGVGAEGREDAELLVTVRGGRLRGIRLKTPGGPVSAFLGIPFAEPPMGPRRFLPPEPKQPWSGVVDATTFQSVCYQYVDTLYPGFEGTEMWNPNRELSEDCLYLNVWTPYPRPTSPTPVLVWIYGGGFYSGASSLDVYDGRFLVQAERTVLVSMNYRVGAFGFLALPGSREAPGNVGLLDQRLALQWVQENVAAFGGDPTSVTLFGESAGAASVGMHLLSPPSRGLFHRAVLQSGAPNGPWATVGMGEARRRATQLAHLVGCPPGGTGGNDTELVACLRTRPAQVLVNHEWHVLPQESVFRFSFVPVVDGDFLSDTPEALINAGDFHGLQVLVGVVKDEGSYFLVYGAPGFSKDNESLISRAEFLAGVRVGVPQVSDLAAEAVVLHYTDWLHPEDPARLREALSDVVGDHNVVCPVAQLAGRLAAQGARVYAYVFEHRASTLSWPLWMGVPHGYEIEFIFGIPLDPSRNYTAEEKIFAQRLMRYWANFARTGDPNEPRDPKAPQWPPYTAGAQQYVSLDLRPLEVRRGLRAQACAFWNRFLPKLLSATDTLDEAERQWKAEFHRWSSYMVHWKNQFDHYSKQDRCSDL
Cholinesterase, sequence (P06276 whole entry): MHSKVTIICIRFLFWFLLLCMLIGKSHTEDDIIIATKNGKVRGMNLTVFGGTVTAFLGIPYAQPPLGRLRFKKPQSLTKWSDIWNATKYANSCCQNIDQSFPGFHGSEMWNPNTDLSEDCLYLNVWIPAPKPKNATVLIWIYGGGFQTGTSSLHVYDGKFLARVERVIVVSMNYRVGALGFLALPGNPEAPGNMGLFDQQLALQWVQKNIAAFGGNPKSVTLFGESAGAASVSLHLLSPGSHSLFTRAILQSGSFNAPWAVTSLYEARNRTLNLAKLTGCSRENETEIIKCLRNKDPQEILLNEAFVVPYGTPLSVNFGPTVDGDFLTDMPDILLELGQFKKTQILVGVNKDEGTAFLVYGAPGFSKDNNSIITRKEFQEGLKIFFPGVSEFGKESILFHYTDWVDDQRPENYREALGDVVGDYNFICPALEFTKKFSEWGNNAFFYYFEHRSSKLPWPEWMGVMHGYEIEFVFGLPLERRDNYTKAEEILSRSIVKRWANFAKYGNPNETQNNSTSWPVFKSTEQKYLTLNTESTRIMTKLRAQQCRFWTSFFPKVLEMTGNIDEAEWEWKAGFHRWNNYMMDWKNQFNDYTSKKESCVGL

Compound `COc1ccc(-c2cc(-c3ccc(Br)cc3)nc3[nH]nc(N)c23)cc1OC` has an IC50 (Acetylcholinesterase) of 0.16 µM, an IC50 (Cholinesterase) of 0.69 µM and an IC50 [1] of 0.26 µM. For the same compound, the inhibition [2] was 60%, the IC50 [3] was 20.3 µM and the inhibition [4] was 75%. For the same compound, the IC50 [5] was 0.77 µM, the Activity [6] was “Active” and the Activity [7] was “Active”. For the same compound, the Activity [8] was “Active”, the IC50 at 72 h [9] was 84.5 µM and the selectivity ratio (human AChE) was 528. It also gave a viability at 72 h, 3.125 µM [10] of 100%.

`COc1ccc(-c2cc(-c3ccccc3)nc3[nH]nc(N)c23)cc1OC` showed an IC50 (Acetylcholinesterase) of 9.63 µM.

`Nc1n[nH]c2nc(-c3ccccc3)cc(-c3ccccc3)c12` showed an IC50 (Acetylcholinesterase) of 5.27 µM.

Work on `CCCCCCCCCCCCCC(=O)N[C@@H](CCCCN)C(=O)N[C@@H](CCC(=O)O)C(=O)N[C@@H](C)C(=O)N1CCC[C@H]1C(=O)N1CCC[C@H]1C(=O)N[C@@H](CO)C(=O)N1CCC[C@H]1C(=O)N1CCC[C@H]1C(=O)N[C@@H](CCC(N)=O)C(=O)N[C@@H](COP(=O)(O)O)C(=O)N1CCC[C@H]1C(=O)O` (Myristoyl-KEAPPSPPQ[pS]P-OH) yielded an IC50 [1] of 1 µM.

`COc1ccc(-c2cc(-c3ccc(OC)c(OC)c3)c3c(N)n[nH]c3n2)cc1` gave an IC50 (Acetylcholinesterase) of 0.81 µM.

Compound `Nc1n[nH]c2nc(-c3ccccc3)cc(-c3ccc(Br)cc3)c12` has an IC50 (Acetylcholinesterase) of 2.24 µM.

Compound `COc1cc(-c2cc(-c3ccc(Br)cc3)nc3[nH]nc(N)c23)cc(OC)c1OC` has an IC50 (Acetylcholinesterase) of 0.63 µM.

`COc1ccc(-c2cc(-c3ccc(Br)cc3)c3c(N)n[nH]c3n2)cc1` gave an IC50 (Acetylcholinesterase) of 3.72 µM.

`COc1cc(-c2cc(-c3ccccc3)nc3[nH]nc(N)c23)cc(OC)c1OC` showed an IC50 (Acetylcholinesterase) of 1.89 µM.

For `COc1ccc(-c2cc(-c3ccccc3)nc3[nH]nc(N)c23)cc1`, the IC50 (Acetylcholinesterase) was 22.4 µM.

For `COc1ccc(-c2cc(-c3ccc(OC)cc3)c3c(N)n[nH]c3n2)cc1`, the IC50 (Acetylcholinesterase) was 0.26 µM.

With `COc1ccc(-c2cc(-c3cc(OC)c(OC)c(OC)c3)c3c(N)n[nH]c3n2)cc1` the IC50 (Acetylcholinesterase) was 6.01 µM.

In the case of `Nc1n[nH]c2nc(-c3ccc(Br)cc3)cc(-c3ccc(Br)cc3)c12`, the IC50 (Acetylcholinesterase) is reported as 0.17 µM, the IC50 (Cholinesterase) is reported as 0.17 µM and the IC50 [1] is reported as 0.21 µM. The inhibition [2] was 66%, the IC50 [3] was 11.6 µM and the inhibition [4] was 79%. The IC50 [5] was 0.46 µM, the Activity [6] was “Active” and the Activity [11] was “Active”. For the same compound, the Activity [12] was “Active”, the IC50 at 72 h [9] was 58.3 µM and the selectivity ratio (human AChE) was 343. For the same compound, the viability at 72 h, 3.125 µM [10] was 100%.

In the case of `COc1ccc(-c2cc(-c3ccc(Br)cc3)nc3[nH]nc(N)c23)cc1`, the IC50 (Acetylcholinesterase) is reported as 0.35 µM.
